Source: patent US8563000B2, “Melanocortin receptor ligands modified with hydantoin” (Ipsen Pharma S.A.S., priority 2007, dated 2013)
pEC50, pKi: −log10 of the molar value.

Legend:
[1] = target: T1, hMC4 (Homo sapiens, UniProt P32245); assay: Cyclic AMP bioassay (ECL), CHO-K1 cells expressing hMC4; assay type: cell-based; conditions: intracellular cAMP
T1 construct: expressed in transfected cells; host or cells: CHO-K1
Description: (§3) Intracellular cyclic AMP (cAMP) levels were determined by an electrochemiluminescence (ECL) assay (Meso Scale Discovery®, Gaithersburg, Md.; referred to hereinafter as “MSD”). […] Transgenic CHO-K1 cells stably expressing hMC receptor subtypes 1, 3, 4 or 5 were dispensed at a density of approximately 7,000 cells/well in 384-well Multi-Array® plates (MSD) containing integrated carbon electrodes and coated with anti-cAMP antibody. Increasing concentrations of the test compounds were added and the cells were incubated for approximately 40 minutes at approximately 37° C. […] At the end of the second incubation period read buffer (Tris-buffered solution containing an ECL co-reactant and Triton X-100 at ph 7.8) was added and the cAMP levels in the cell lysates were immediately determined by ECL detection with a Sector Imager 6000 Reader® (MSD). Data was analyzed using a computer-assisted non-linear regression analysis (XL fit; IDBS) and reported as either an EC50 value or a Kb value.

[2] = target: T2, hMC5 (Homo sapiens, UniProt P33032); assay: Cyclic AMP bioassay (ECL), CHO-K1 cells expressing hMC5; assay type: cell-based; conditions: intracellular cAMP
T2 construct: expressed in transfected cells; host or cells: CHO-K1
T2 sequence (P33032 whole entry): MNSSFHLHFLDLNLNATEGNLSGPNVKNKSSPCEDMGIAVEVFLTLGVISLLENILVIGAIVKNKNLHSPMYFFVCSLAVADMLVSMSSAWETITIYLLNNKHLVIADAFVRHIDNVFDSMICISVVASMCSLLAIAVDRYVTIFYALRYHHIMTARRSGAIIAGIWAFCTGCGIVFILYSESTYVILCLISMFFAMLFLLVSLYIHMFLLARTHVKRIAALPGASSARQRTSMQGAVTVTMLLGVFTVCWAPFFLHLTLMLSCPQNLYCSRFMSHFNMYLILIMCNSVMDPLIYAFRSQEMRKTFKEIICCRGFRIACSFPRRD
Description: as §3

[3] = target: T3, hMC1 (Homo sapiens, UniProt Q01726); assay: Cyclic AMP bioassay (ECL), CHO-K1 cells expressing hMC1; assay type: cell-based; conditions: intracellular cAMP
T3 construct: expressed in transfected cells; host or cells: CHO-K1
T3 sequence (Q01726 whole entry): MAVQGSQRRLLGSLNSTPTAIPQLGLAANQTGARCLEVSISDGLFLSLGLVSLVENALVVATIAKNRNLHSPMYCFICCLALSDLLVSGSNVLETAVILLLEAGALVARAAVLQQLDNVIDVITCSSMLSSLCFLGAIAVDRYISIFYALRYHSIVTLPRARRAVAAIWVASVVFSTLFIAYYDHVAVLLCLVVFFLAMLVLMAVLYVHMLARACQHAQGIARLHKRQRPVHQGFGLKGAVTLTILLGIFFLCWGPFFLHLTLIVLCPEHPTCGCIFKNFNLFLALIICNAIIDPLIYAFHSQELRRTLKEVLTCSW
Description: as §3

[4] = target: T4, hMC3 (Homo sapiens, UniProt P41968); assay: Cyclic AMP bioassay (ECL), CHO-K1 cells expressing hMC3; assay type: cell-based; conditions: intracellular cAMP
T4 construct: expressed in transfected cells; host or cells: CHO-K1
T4 sequence (P41968 whole entry): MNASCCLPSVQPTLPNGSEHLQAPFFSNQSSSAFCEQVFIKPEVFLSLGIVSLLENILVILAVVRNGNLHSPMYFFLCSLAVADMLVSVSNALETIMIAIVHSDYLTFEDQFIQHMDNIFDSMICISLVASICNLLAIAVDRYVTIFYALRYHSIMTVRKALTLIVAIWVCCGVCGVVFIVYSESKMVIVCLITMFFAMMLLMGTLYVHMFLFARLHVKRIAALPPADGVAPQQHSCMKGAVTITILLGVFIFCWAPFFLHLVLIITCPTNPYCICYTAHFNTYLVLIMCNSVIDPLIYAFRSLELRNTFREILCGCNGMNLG
Description: as §3

[5] = target: T2, hMC5; assay: Radioligand binding assay, [125I]-NDP-α-MSH, CHO-K1 membranes
Description: (§1) Cellular membranes used for the in vitro receptor binding assays were obtained from transgenic CHO-K1 cells stably expressing hMC-R receptor subtypes 1, 3, 4 or 5. […] The pellets were re-suspended in the same buffer and centrifuged at 50,000 g for 10 minutes at approximately 4° C. The washed pellets containing the cellular membranes were stored at approximately −80° C.
(§2) Filters were washed three times with 50 mM Tris-HCl at pH 7.4 at a temperature of approximately 0-4° C. and then assayed for radioactivity using a Packard Topcount® scintillation counter. Binding data were analyzed by computer-assisted non-linear regression analysis (XL fit; IDBS).

[6] = target: T1, hMC4; assay: as above
Description: as §1, §2

[7] = target: T4, hMC3; assay: as above
Description: as §1, §2

[8] = target: T3, hMC1; assay: as above
Description: as §1, §2

T1 sequence (P32245 whole entry): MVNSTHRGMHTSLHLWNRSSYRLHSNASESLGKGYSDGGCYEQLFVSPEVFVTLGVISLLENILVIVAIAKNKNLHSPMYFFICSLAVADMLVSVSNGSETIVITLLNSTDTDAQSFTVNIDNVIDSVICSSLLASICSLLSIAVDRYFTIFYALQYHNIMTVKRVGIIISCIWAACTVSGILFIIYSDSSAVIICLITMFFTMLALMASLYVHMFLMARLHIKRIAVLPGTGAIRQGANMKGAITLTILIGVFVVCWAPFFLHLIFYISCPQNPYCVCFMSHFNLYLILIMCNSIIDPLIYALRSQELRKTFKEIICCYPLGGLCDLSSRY

Row | Compound | pEC50 [1] | pEC50 [2] | pEC50 [3] | pEC50 [4] | pKi [5] | pKi [6] | pKi [7] | pKi [8]
1 | C[C@H]1NC(=O)[C@@H](NC(=O)CN2C(=O)N[C@H](CCCNC(=N)N)C2=O)CSSC[C@@H](C(N)=O)NC(=O)[C@H](Cc2c[nH]c3ccccc23)NC(=O)[C@H](CCCNC(=N)N)NC(=O)[C@@H](Cc2ccccc2)NC(=O)[C@H](Cc2cnc[nH]2)NC1=O [Hydantoin(C(O)-(D-Arg-Gly))-cyclo(Cys-D-Ala-His-D-Phe-Arg-Trp-Cys)-NH2] | 9.29 | 5.40 | 7.94 | 7.63 |  |  |  | 
2 | CCCC[C@@H](C(=O)N[C@H]1CSSC[C@@H](C(N)=O)NC(=O)[C@H](Cc2c[nH]c3ccccc23)NC(=O)[C@H](CCCNC(=N)N)NC(=O)[C@@H](Cc2ccccc2)NC(=O)[C@H](Cc2cnc[nH]2)NC(=O)[C@@H](C)NC1=O)N1C(=O)N[C@H](C)C1=O [Hydantoin(C(O)-(D-Ala-Nle))-cyclo(Cys-D-Ala-His-D-Phe-Arg-Trp-Cys)-NH2] | 8.83 |  |  | 8.59 |  |  |  | 
3 | N=C(N)NCCC[C@@H]1NC(=O)[C@@H](Cc2ccc3ccccc3c2)NC(=O)C2(Cc3ccccc3C2)N2C(=O)N[C@@H](CC(=O)NCCCC[C@@H](C(N)=O)NC(=O)[C@H](Cc3c[nH]c4ccccc34)NC1=O)C2=O [cyclo[Hydantoin(C(O)-(Asp-Aic))-D-2-Nal-Arg-Trp-Lys]-NH2] |  |  |  |  | 5.94 | 7.45 | 5.58 | 5.04
4 | C[C@H]1NC(=O)[C@@H](NC(=O)CN2C(=O)N[C@H](C)C2=O)CSSC[C@@H](C(N)=O)NC(=O)[C@H](Cc2c[nH]c3ccccc23)NC(=O)[C@H](CCCNC(=N)N)NC(=O)[C@@H](Cc2ccccc2)NC(=O)[C@H](Cc2cnc[nH]2)NC1=O [Hydantoin(C(O)-(D-Ala-Gly))-cyclo(Cys-D-Ala-His-D-Phe-Arg-Trp-Cys)-NH2] | 9.51 | 6.45 | 8.33 | 8.65 |  |  |  | 
5 | N=C(N)NCCC[C@@H]1NC(=O)[C@@H](Cc2ccc3ccccc3c2)NC(=O)C2(CCCCC2)N2C(=O)N[C@@H](CC(=O)NCCCC[C@@H](C(N)=O)NC(=O)[C@H](Cc3c[nH]c4ccccc34)NC1=O)C2=O [cyclo[Hydantoin(C(O)-(Asp-A6c))-D-2-Nal-Arg-Trp-Lys]-NH2] |  |  |  |  | 6.35 | 7.78 | 5.83 | 5.66
6 | C[C@H]1NC(=O)[C@@H](NC(=O)[C@@H](CCCNC(=N)N)N2C(=O)CNC2=O)CSSC[C@@H](C(N)=O)NC(=O)[C@H](Cc2c[nH]c3ccccc23)NC(=O)[C@H](CCCNC(=N)N)NC(=O)[C@@H](Cc2ccccc2)NC(=O)[C@H](Cc2cnc[nH]2)NC1=O [Hydantoin(C(O)-(Gly-D-Arg))-cyclo(Cys-D-Ala-His-D-Phe-Arg-Trp-Cys)-NH2] | 9.36 | 5.01 | 8.12 | 7.94 |  |  |  | 
7 | N=C(N)NCCC[C@@H]1NC(=O)[C@@H](Cc2ccc3ccccc3c2)NC(=O)C2(CCNCC2)N2C(=O)N[C@@H](CC(=O)NCCCC[C@@H](C(N)=O)NC(=O)[C@H](Cc3c[nH]c4ccccc34)NC1=O)C2=O [cyclo[Hydantoin(C(O)-(Asp-Apc))-D-2-Nal-Arg-Trp-Lys]-NH2] |  |  |  |  |  | 6.58 | 5.56 | 5.89
8 | N=C(N)NCCC[C@@H]1NC(=O)[C@@H](Cc2ccc3ccccc3c2)NC(=O)C2(CCCC2)N2C(=O)N[C@@H](CC(=O)NCCCC[C@@H](C(N)=O)NC(=O)[C@H](Cc3c[nH]c4ccccc34)NC1=O)C2=O [cyclo[Hydantoin(C(O)-(Asp-A5c))-D-2-Nal-Arg-Trp-Lys]-NH2] |  |  |  |  |  |  | 5.62 | 5.00
9 | CC[C@H](C)[C@@H]1NC(=O)N([C@H]2CSSC[C@@H](C(N)=O)NC(=O)[C@H](Cc3c[nH]c4ccccc34)NC(=O)[C@H](CCCNC(=N)N)NC(=O)[C@@H](Cc3ccccc3)NC(=O)[C@H](Cc3cnc[nH]3)NC(=O)[C@@H](C)NC2=O)C1=O [cyclo[Hydantoin(C(O)-(Ile-Cys))-D-Ala-His-D-Phe-Arg-Trp-Cys]-NH2] |  |  |  |  | < 5.00 |  |  | 

Other lines, results leading:

Row | pEC50 [1] | pEC50 [2] | pEC50 [3] | pEC50 [4] | pKi [5] | pKi [6] | pKi [7] | pKi [8] | Compound
10 |  |  |  |  | < 5.00 |  |  |  | C[C@@H]1C(=O)N[C@@H](Cc2cnc[nH]2)C(=O)N[C@H](Cc2ccccc2)C(=O)N[C@@H](CCCNC(=N)N)C(=O)N[C@@H](Cc2c[nH]c3ccccc23)C(=O)N[C@H](C(N)=O)CNC(=O)C[C@@H]2NC(=O)N1C2=O [cyclo[Hydantoin(C(O)-(Asp-D-Ala))-His-D-Phe-Arg-Trp-Dap]-NH2]
11 | 8.35 | 5.03 | 7.25 | 7.05 | 5.19 | 8.11 | 6.24 | 7.42 | C[C@@H]1C(=O)N[C@@H](Cc2cnc[nH]2)C(=O)N[C@H](Cc2ccccc2)C(=O)N[C@@H](CCCNC(=N)N)C(=O)N[C@@H](Cc2c[nH]c3ccccc23)C(=O)N[C@H](C(N)=O)CCCNC(=O)C[C@@H]2NC(=O)N1C2=O [cyclo[Hydantoin(C(O)-(Asp-D-Ala))-His-D-Phe-Arg-Trp-Orn]-NH2]
12 | 8.44 |  |  | 7.65 |  | 7.34 | 5.72 | 7.14 | C[C@@H]1C(=O)N[C@@H](Cc2cnc[nH]2)C(=O)N[C@H](Cc2ccccc2)C(=O)N[C@@H](CCCNC(=N)N)C(=O)N[C@@H](Cc2c[nH]c3ccccc23)C(=O)N[C@H](C(N)=O)CCCCNC(=O)CC[C@@H]2NC(=O)N1C2=O [cyclo[Hydantoin(C(O)-(Glu-D-Ala))-His-D-Phe-Arg-Trp-Lys]-NH2]
13 |  | < 5.00 |  |  |  |  |  |  | N=C(N)NCCC[C@@H]1NC(=O)[C@@H](Cc2ccccc2)NC(=O)[C@H](Cc2cnc[nH]2)NC(=O)[C@H](CCC(=O)O)NC(=O)[C@@H](NC(=O)CN2C(=O)CNC2=O)CSSC[C@@H](C(N)=O)NC(=O)[C@H](Cc2c[nH]c3ccccc23)NC1=O [Hydantoin(C(O)-(Gly-Gly))-cyclo(Cys-Glu-His-D-Phe-Arg-Trp-Cys)-NH2]
14 |  |  |  |  |  |  |  | 6.70 | N=C(N)NCCC[C@@H]1NC(=O)[C@@H](Cc2ccc3ccccc3c2)NC(=O)[C@H](Cc2cnc[nH]2)N2C(=O)N[C@@H](CC(=O)NCCCC[C@@H](C(N)=O)NC(=O)[C@H](Cc3c[nH]c4ccccc34)NC1=O)C2=O [cyclo[Hydantoin(C(O)-(Asp-His))-D-2-Nal-Arg-Trp-Lys]-NH2]
15 | 9.24 | 5.75 | 7.84 | 7.66 |  |  |  |  | N=C(N)NCCC[C@@H]1NC(=O)[C@@H](Cc2ccccc2)NC(=O)[C@H](Cc2cnc[nH]2)NC(=O)[C@H](CCC(=O)O)NC(=O)[C@@H](N2C(=O)CNC2=O)CSSC[C@@H](C(N)=O)NC(=O)[C@H](Cc2c[nH]c3ccccc23)NC1=O [cyclo[Hydantoin(C(O)-(Gly-Cys))-Glu-His-D-Phe-Arg-Trp-Cys]-NH2]
16 |  | < 5.00 |  |  |  |  |  |  | CCCC[C@@H]1NC(=O)N(CC(=O)N[C@H]2CSSC[C@@H](C(N)=O)NC(=O)[C@H](Cc3c[nH]c4ccccc34)NC(=O)[C@H](CCCNC(=N)N)NC(=O)[C@@H](Cc3ccccc3)NC(=O)[C@H](Cc3cnc[nH]3)NC(=O)[C@H](CCC(=O)O)NC2=O)C1=O [Hydantoin(C(O)-(Nle-Gly))-cyclo(Cys-Glu-His-D-Phe-Arg-Trp-Cys)-NH2]
17 |  |  |  |  | 5.54 | 6.38 | 5.72 | 5.12 | N=C(N)NCCC[C@@H]1NC(=O)[C@@H](Cc2ccc3ccccc3c2)NC(=O)C2(CC2)N2C(=O)N[C@@H](CC(=O)NCCCC[C@@H](C(N)=O)NC(=O)[C@H](Cc3c[nH]c4ccccc34)NC1=O)C2=O [cyclo[Hydantoin(C(O)-(Asp-A3c))-D-2-Nal-Arg-Trp-Lys]-NH2]
18 | 8.31 |  |  | 7.41 |  | 7.28 | 5.55 | 7.22 | C[C@@H]1C(=O)N[C@@H](Cc2cnc[nH]2)C(=O)N[C@H](Cc2ccccc2)C(=O)N[C@@H](CCCNC(=N)N)C(=O)N[C@@H](Cc2c[nH]c3ccccc23)C(=O)N[C@H](C(N)=O)CCCNC(=O)CC[C@@H]2NC(=O)N1C2=O [cyclo[Hydantoin(C(O)-(Glu-D-Ala))-His-D-Phe-Arg-Trp-Orn]-NH2]
19 | 9.74 |  | 7.25 | 7.74 |  | 8.30 | 6.06 | 7.79 | C[C@@H]1C(=O)N[C@@H](Cc2cnc[nH]2)C(=O)N[C@H](Cc2ccccc2)C(=O)N[C@@H](CCCNC(=N)N)C(=O)N[C@@H](Cc2c[nH]c3ccccc23)C(=O)N[C@H](C(N)=O)CNC(=O)CC[C@@H]2NC(=O)N1C2=O [cyclo[Hydantoin(C(O)-(Glu-D-Ala))-His-D-Phe-Arg-Trp-Dap]-NH2]
20 | 9.80 | 5.57 | 7.74 | 7.77 | 5.65 | 8.53 | 6.91 | 8.02 | N=C(N)NCCC[C@@H]1NC(=O)[C@@H](Cc2ccccc2)NC(=O)[C@H](Cc2cnc[nH]2)NC(=O)[C@H](CCC(=O)O)NC(=O)[C@@H](NC(=O)CN2C(=O)N[C@H](CCCNC(=N)N)C2=O)CSSC[C@@H](C(N)=O)NC(=O)[C@H](Cc2c[nH]c3ccccc23)NC1=O [Hydantoin(C(O)-(D-Arg-Gly))-cyclo(Cys-Glu-His-D-Phe-Arg-Trp-Cys)-NH2]
21 | 9.90 | 5.13 | 7.89 | 7.99 | 5.34 | 8.75 | 7.11 | 8.37 | N=C(N)NCCC[C@@H]1NC(=O)[C@@H](Cc2ccccc2)NC(=O)[C@H](Cc2cnc[nH]2)NC(=O)[C@H](CCC(=O)O)NC(=O)[C@@H](NC(=O)[C@@H](CCCNC(=N)N)N2C(=O)CNC2=O)CSSC[C@@H](C(N)=O)NC(=O)[C@H](Cc2c[nH]c3ccccc23)NC1=O [Hydantoin(C(O)-(Gly-D-Arg))-cyclo(Cys-Glu-His-D-Phe-Arg-Trp-Cys)-NH2]
